Here are results for 61 molecules from the METLIN SMRT retention time set (Domingo-Almenara et al. 2019).

The data set can be described thus: gradient 5% acetonitrile 3 min, to 50% in 2 min, to 85% in 15 min, held 3 min, 100 µL/min. Particulars: column: Zorbax Extend-C18 2.1 x 50 mm; eluents: water / acetonitrile, 0.1% formic acid. In short, it runs like this: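 Values are retention times taken from adduct peaks that software picked and an analyst inspected. The pure standards were run as mixtures of ~100 molecules on HPLC linked to a quadrupole time-of-flight mass spectrometer, in positive and negative ionization mode. A Zorbax Extend-C18 column (2.1 × 50 mm, 1.8 μm) was used at 100 μL/min with water and acetonitrile, each including 0.1% formic acid.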
Regarding `O=c1n(Cc2ccccc2Cl)nc2ccc(S(=O)(=O)N3CCCCCC3)cn12`, the RP-LC retention time amounted to 1000 s.

Turning to `COc1ccccc1NC(=O)N1CCCC1c1nc(-c2ccc(F)cc2F)no1` (stereo unspecified), the RP-LC retention time came to 1000 s.

`CCCc1noc(-c2cccnc2N2CCCN(Cc3ccccc3F)CC2)n1` had an RP-LC retention time of 701 s.

For `COCCCNC(=O)N1CCCCCC1c1ccc(C)cc1` (stereo unspecified), the RP-LC retention time worked out at 939 s.

Consider `O=C(c1ccc(Br)o1)N1CCC2(CC1)OCCS2`, for which the RP-LC retention time is 771 s.

`COc1ccc(CNC(=O)Cn2cnc3nc(N4CCCC(C(=O)NC5CC5)C4)sc3c2=O)cc1` (stereo unspecified) registered an RP-LC retention time of 655 s.

In turn, `CC(C)CCNC(=O)c1cc2c(s1)N(C)CCC2` showed an RP-LC retention time of 928 s.

Consider `COCCc1noc(C2CN(C(=O)Cn3ccnc3)C2)n1`, for which the RP-LC retention time worked out at 580 s.

Turning to `COC(=O)C1=CN(c2ccccc2)c2cc(F)c(F)cc2S1(=O)=O`, the RP-LC retention time amounted to 858 s.

The molecule `O=c1cc(N2CCOCC2)oc2c1ccc1ccccc12` yielded an RP-LC retention time of 882 s.

`COc1cc2c(cc1CNC(=O)c1ccco1)OCCCO2` gave an RP-LC retention time of 755 s.

With `Cc1nnc2c(=O)n(CC(=O)NCc3cc(F)ccc3F)c3cccnc3n12`, the RP-LC retention time worked out at 670 s.

Turning to `Cn1ncc2c(N3CCCC3)nc(C(=O)NCc3cccs3)nc21`, the RP-LC retention time was determined as 742 s.

Take `N#Cc1cc2c(nc1SCC(=O)Nc1nccs1)CCCCC2`: the RP-LC retention time came out at 871 s.

Molecule `COc1ccc(Br)cc1CNC(=O)Cn1cnc2nc3c(cc2c1=O)CCCC3` registered an RP-LC retention time of 777 s.

Regarding `Cc1cc(NC(=O)CCn2cnc3ccccc3c2=O)sn1`, the RP-LC retention time was 619 s.

In turn, `Cc1cccc(Nc2nc(CC(=O)N3CCC(C(N)=O)CC3)cs2)n1` had an RP-LC retention time of 539 s.

Turning to `O=C(c1cc2c(s1)CCCC2)N1CCc2[nH]cnc2C12CCCCC2`, the RP-LC retention time amounted to 692 s.

In the case of `CCc1sc(NC(=O)c2cc(OC)cc(OC)c2)nc1-c1ccccc1`, the RP-LC retention time was determined as 1200 s.

As to `Cc1ccnc(NS(=O)(=O)c2ccc(NC(=O)c3nc(-c4cnccn4)no3)cc2)n1`, the RP-LC retention time is 608 s.

As for `O=C(O)c1cc2cccc([N+](=O)[O-])c2[nH]1`, the RP-LC retention time came out at 746 s.

Consider `CN(c1nccn2c(=O)n(CC(=O)Nc3ccc4c(c3)OCO4)nc12)C1CCCCC1`, for which the RP-LC retention time worked out at 716 s.

Molecule `CCCCOC(=O)c1ccc(NC(=O)c2c(OCC)cc(=O)n3c2CCCC3)cc1` registered an RP-LC retention time of 910 s.

`CCNC(=O)C1CCCN(c2nc3ncn(CC(=O)Nc4c(C)cc(C)cc4C)c(=O)c3s2)C1` (stereo unspecified): the RP-LC retention time was found to be 715 s.

The molecule `COc1cc(/C=C(\C)c2ccc3c(c2)OCO3)cc(OC)c1OC` registered an RP-LC retention time of 1030 s.

`CC(C)n1cnc2cc(CNC(=O)Cc3cccc(F)c3)ccc21` had an RP-LC retention time of 607 s.

`O=C(c1ccc(Cn2c(=O)c3cccn3c3cccnc32)cc1)N1CCN(c2ccccn2)CC1` came in with an RP-LC retention time of 645 s.

In turn, `Cc1nnc2ccc(-c3noc(Cc4ccc(F)cc4)n3)cn12` came in with an RP-LC retention time of 805 s.

In the case of `COc1ccccc1N1CCN(CCN2C(=O)c3ccccc3C(C)(C)C2=O)CC1`, the RP-LC retention time amounted to 787 s.

`O=C(Cn1nc2c3cc(-c4ccc(F)cc4)nn3ccn2c1=O)N1CCN(c2ccc(F)cc2)CC1` gave an RP-LC retention time of 920 s.

`Cc1cnc(CC2CCN(C(=O)N(C)C)C2)n1Cc1ccccc1` (stereo unspecified): the RP-LC retention time stood at 609 s.

As for `O=C(NCc1ccccc1C(F)(F)F)c1ccc2c(c1)ncn2CCN1CCCC1`, the RP-LC retention time was found to be 599 s.

In the case of `Cc1ccc(Sc2nccnc2N2CCCC(C(=O)NCCC(C)C)C2)cc1` (stereo unspecified), the RP-LC retention time was found to be 1140 s.

For the molecule `CN1C(=O)c2cc(C(=O)NCc3cccc(F)c3)nn2CC1(C)C(=O)NC1CCCC1` (stereo unspecified), the RP-LC retention time amounted to 750 s.

`Cc1ccccc1Cn1cc(-c2ccncc2)cc1C(=O)NC(C)c1cccnc1` (stereo unspecified) gave an RP-LC retention time of 579 s.

Take `COCCN(Cc1ccc(Cl)cc1)Cc1cc(=O)n2ccccc2n1`: the RP-LC retention time turned out to be 635 s.

Turning to `COc1ccc(NC(=O)Cn2c(C(F)(F)F)nc3cc4c(cc32)OCCO4)cc1`, the RP-LC retention time amounted to 829 s.

As to `CCCCN(C)C(=O)Cn1c(=O)c2cnc(-c3ccc(Cl)cc3)nc2n(CC)c1=O`, the RP-LC retention time was 1190 s.

Turning to `CCOc1ccc(-c2csc3c(=O)n(Cc4cccc(Br)c4)cnc23)cc1OCC`, the RP-LC retention time worked out at 1210 s.

As for `O=C(NCc1cccs1)C1CCN(Cc2cc3ccccc3n2Cc2ccccc2Cl)CC1`, the RP-LC retention time came out at 821 s.

As for `Cc1ccc(-c2ccc(-n3nc(C)c(S(=O)(=O)NCCC(C)C)c3C)nn2)cc1`, the RP-LC retention time was determined as 1210 s.

On to `Cn1c(=O)n([C@H]2CCCN(S(=O)(=O)Cc3ccccc3)C2)c2ncccc21`, for which the RP-LC retention time came out at 827 s.

The molecule `COC(=O)C1=CN(c2ccc(Br)cc2)c2ccccc2S1(=O)=O` showed an RP-LC retention time of 908 s.

On to `CC(=O)Nc1ccc(OCC(=O)N(C)Cc2ccccc2)nc1`, for which the RP-LC retention time was found to be 544 s.

Consider `Cc1cc(-c2nnc(-c3ccccc3)o2)c(C)n1CC(=O)Nc1ccc(F)cc1`, for which the RP-LC retention time stood at 938 s.

The molecule `COc1ccc(OC)c(NC(=O)N2CCCn3nc(-c4cccs4)cc3C2)c1` showed an RP-LC retention time of 867 s.

Molecule `CCCn1cc(CCNC(=O)Nc2cccc(C)c2)c2cccnc21` had an RP-LC retention time of 782 s.

Regarding `CCOc1ccc(S(=O)(=O)N2CCC(C(=O)NCCO)CC2)cc1`, the RP-LC retention time amounted to 665 s.

`Cc1ccc(Nc2nc(-c3ccc4c(c3)OCO4)cs2)nc1` registered an RP-LC retention time of 863 s.

As to `CC1CCN(C(=O)CCNc2c(-c3ccc(F)cc3)nc3cnccn23)CC1`, the RP-LC retention time was 794 s.

`O=C(NCCc1ccccc1)C(=O)NCC1OCCc2ccccc21` (stereo unspecified) registered an RP-LC retention time of 946 s.

With `O=C(Nc1nccs1)C1CCN(C(=O)C2COc3ccccc3O2)CC1` (stereo unspecified), the RP-LC retention time turned out to be 716 s.

`Cc1ccc(NC(=O)CSc2nc(=O)n(CCN(C)C)c3c2CCC3)cc1` registered an RP-LC retention time of 636 s.

In turn, `CCc1ccccc1S(=O)(=O)N1CCC(C(=O)NCc2csc(-c3cccs3)n2)CC1` had an RP-LC retention time of 950 s.

The molecule `CCc1nc2cc(-c3noc(-c4cccs4)n3)ccc2o1` showed an RP-LC retention time of 1080 s.

`O=C(c1nc(-c2cccs2)cs1)N1CCCC1`: the RP-LC retention time was 935 s.

In turn, `Cc1oc(C(C)C)nc1C(=O)NC(C)c1ccccn1` (stereo unspecified) returned an RP-LC retention time of 610 s.

In turn, `COC(=O)C1=CN(c2ccc(Cl)cc2)c2ccccc2S1(=O)=O` registered an RP-LC retention time of 864 s.

The molecule `CCCC(NC(=O)CCc1ccccc1OC)C(=O)Nc1nc2ccccc2[nH]1` (stereo unspecified) registered an RP-LC retention time of 750 s.

Molecule `Cc1cccc(C)c1NC(=O)Cn1nc(N2CCSCC2)c2ccccc2c1=O` registered an RP-LC retention time of 892 s.

Regarding `CCOc1ccc(CC(=O)N2C[C@@H]3C[C@H]2C[C@@H]3NS(=O)(=O)c2cccs2)cc1`, the RP-LC retention time was 791 s.
